Test [1] has as its system aconitine-induced arrhythmia. Kind of test: Antiarrhythmic action in aconitine-induced arrhythmia of the rat. In kind it is in vivo. As to conditions: iv, 5 min, read-out: Antiarrhythmic effect on aconitine-induced arrhythmias ED 50%. The procedure: 2. Determination of the antiarrhythmic action in aconitine-induced arrhythmia of the rat
The experimental animals used were male Sprague-Dawley rats weighing from 180 to 300 g. Anaesthesia was effected intraperitoneally with 100 mg/kg of thiobutabarbital. To induce arrhythmias, aconitine was infused at a rate of 5 μg per kg per minute. The test substances were administered intravenously 2 minutes before the beginning of the aconitine infusion. The parameter measured was the duration of the aconitine infusion when the first arrhythmias (loss of P, ventricular extrasystoles and tachycardias) appeared in the ECG of the animals. In untreated animals, the aconitine-induced arrhythmia occurred after 3.3±0.11 minutes (n=120). The ED 50% was determined from the linear relationship between log dose (mg/kg) of the test substances and the relative prolongation of aconitine infusion duration (Δ%).

Test [2] addresses T1, β2-receptor subtype (rat lung membranes, 25% of β1, 75% of β2) (Rattus norvegicus, UniProt P10608).
T1 construct: rat lung membranes; from tissue; host or cells: rat lung membranes
The experiment in a line: Inhibition of specific 3H-dihydroalprenolol binding in rat lung membranes. As to conditions: 1 nM 3H-dihydroalprenolol, confidence limits in brackets, read-out: Lung Ki (competition constant). Here is the method: Two experiments were carried out with three batches.

Where a name gives a salt, the structure may show the parent alone.

T1 sequence (P10608 whole entry): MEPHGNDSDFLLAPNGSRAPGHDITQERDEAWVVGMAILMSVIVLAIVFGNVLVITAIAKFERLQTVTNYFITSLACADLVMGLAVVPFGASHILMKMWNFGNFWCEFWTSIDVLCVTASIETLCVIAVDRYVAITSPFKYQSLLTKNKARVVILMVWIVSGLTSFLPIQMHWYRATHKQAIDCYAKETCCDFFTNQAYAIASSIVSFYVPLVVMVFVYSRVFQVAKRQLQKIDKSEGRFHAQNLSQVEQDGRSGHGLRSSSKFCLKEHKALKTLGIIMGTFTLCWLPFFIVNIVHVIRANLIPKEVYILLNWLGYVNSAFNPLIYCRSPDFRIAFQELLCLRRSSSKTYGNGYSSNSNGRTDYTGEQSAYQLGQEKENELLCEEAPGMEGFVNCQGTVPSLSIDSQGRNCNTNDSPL

`CCCNC[C@@H](O)COc1ccccc1C(=O)CCc1ccccc1` [(R)-propafenone, (R)-propafenone . HCl]: the ED50 in test [1] came to 0.801 mg/kg. Also, the Ki in test [2] is 257 nM.

For `CCCNC[C@H](O)COc1ccccc1C(=O)CCc1ccccc1` [(S)-propafenone, (S)-propafenone . HCl], the ED50 in test [1] is 0.676 mg/kg. The inhibitory constant (Ki) in test [2] came to 14 nM.

Take `CCCNCC(O)COc1ccccc1C(=O)CCc1ccccc1` (racemic) [(R,S)-propafenone, 2'-(2-hydroxy-3-propylaminopropoxy)-3-phenylpropiophenone, reference compound]: the ED50 in test [1] is 0.724 mg/kg. In addition, the inhibition constant Ki in test [2] was 32 nM.

Broadly, the Ki is a dissociation constant, usually derived from enzyme kinetics or from competition with a known ligand.

The record behind these values is US4945114A, “Therapeutic agents containing enantiomers of propafenone” (priority 1987, dated 1990).
